Literature values as cited in US5523456A, “Inhibitors of farnesyl-protein transferase” (Merck & Co., Inc., priority 1994, dated 1996).

Test system: Ras farnesylation
Conditions: Hancock et al.; Casey et al.; Schafer et al.

With `CC[C@H](C)C(=O)O[C@H]1CCC=C2C=C[C@H](C)[C@H](CC[C@@H]3C[C@@H](O)CC(=O)O3)[C@H]21` [compactin] as the compound, how does the “Inhibition of Ras farnesylation in vivo” value read?
The value was “Inhibition of Ras farnesylation in vivo has been demonstrated”.

Which “Inhibition of Ras farnesylation in vivo” value does the source give for `CC[C@H](C)C(=O)O[C@H]1C[C@@H](C)C=C2C=C[C@H](C)[C@H](CC[C@@H]3C[C@@H](O)CC(=O)O3)[C@H]21` [lovastatin] here?
The value was “Inhibition of Ras farnesylation in vivo has been demonstrated”.
